Key:
[1] = tested on: F1174L-mutated ALK hairpin oligonucleotide (DNA, hairpin) AAATTAAACCACCAGAACATTTTTATGTTCTGGTGGTTTAATTT; test: SPR (Biacore X100), kinetic fit with mass transfer; conditions: 150 mM NaCl; HBS-EP: 10 mM HEPES, 3 mM EDTA, 0.005% P20, 0.1% DMSO, 25 °C
[2] = tested on: ALK wild-type (WT) hairpin oligonucleotide (DNA, hairpin) AAATTCAACCACCAGAACATTTTTATGTTCTGGTGGTTGAATTT; test: SPR (Biacore X100), kinetic fit with mass transfer; conditions: 150 mM NaCl; HBS-EP: 10 mM HEPES, 3 mM EDTA, 0.005% P20, 0.1% DMSO, 25 °C

KD [1]: 6.37 ± 0.41 × 10^-8 M
KD [2]: 58.20 ± 1.62 × 10^-8 M
Compound: CC(=O)Nc1cc(C(=O)Nc2cc(C(=O)Nc3cc(C(=O)Nc4cc(C(=O)NCCC(=O)Nc5cc(C(=O)Nc6cc(C(=O)Nc7cc(C(=O)NCCCC(=O)Nc8cn(C)c(C(=O)Nc9cn(C)c(C(=O)NCCC(=O)Nc%10cn(C)c(C(=O)Nc%11cn(C)c(C(=O)Nc%12cc(C(=O)Nc%13ccc%14cc(C(=O)NCCCN(C)C)[nH]c%14c%13)n(C)c%12)n%11)n%10)n9)n8)n(C)c7)n(C)c6)n(C)c5)n(C)c4)n(C)c3)n(C)c2)n(C)c1
